Results reported in patent publication US20040092456A1, “Methods for identifying glucose uptake modulators” (priority 2002, published 2004).

Experiments:
Type in all cases: cell-based, mouse
EDL muscles [1] = assay: Insulin-mediated 2-deoxyglucose (2-DG) uptake in isolated EDL muscles; conditions: insulin 10 milliunits ml^−1
Description: (§1) Adult male mice (NMRI strain) were housed at room temperature and fed ad libitum. Animals were killed by rapid neck disarticulation and muscles removed. Extensor digitorum longus (EDL; mainly fast-twitch fibers)) and soleus (mainly slow-twitch fibers) muscles were used for measurements of 2-deoxyglucose (2-DG) uptake. Flexor digitorum brevis (FDB, mainly fast-twitch fibers) muscles were used in single fiber experiments. All procedures were approved by the local ethics committee.
(§2) 2-DG uptake was measured essentially as described elsewhere (Shashkin et al. (1995) J Biol Chem 270:25613-25618; Le Marchand-Brustel et al. (1979) J Clin Invest 64:1505-1515). Briefly, muscles were incubated at 35° C. in Krebs bicarbonate buffer containing 2 mmol 1^−1 pyruvate (no glucose) ±an antagonist of SMCE, either 2-APB, a relatively specific inhibitor of SMCE that appears to act directly on SMCE channels (Braun et al. (2001) J Biol Chem 276:1063-1070; Broad et al. (2001) J Biol Chem 276:15945-15952), or MDL, another inhibitor of SMCE with different modes of action as compared to 2-APB (van Rossum et al. (2000) J Biol Chem 275:28562-28568). In other experiments muscles were incubated in 2,5-di(tert-butyl)-1,4-benzohydroquinone (TBQ), an inhibitor of SR Ca^2+ uptake (Westerblad et al. (1994) J Physiol 474:291-301). In some experiments insulin was added (10 milliunits ml^−1) after the initial 30 min incubation period. After an additional 30 min, 2-DG (1 mmol 1^−1; 1 mCi mmol^−1) and inulin (0.2 μCi per ml medium) were added. Muscles were blotted and frozen in liquid nitrogen 20 min after addition of 2-DG. Muscles were then weighed, digested in NaOH at 70° C., cooled and centrifuged, and aliquots of the supernatants were added to scintillation cocktail and counted for ^3H (2-DG) and ^14C (inulin).
In some experiments on EDL muscles, 2-DG glucose uptake was measured after 2-APB removal in the continued presence of insulin. After the initial 30 min incubation period, insulin (10 milliunits ml^−1) was added and remained in the solution for the rest of the experiment. After an additional 30 min, 2-APB (100 μM) was added. […] Control muscles were treated in the same way except that 2-APB was never added.

soleus muscles [2] = assay: Insulin-mediated 2-deoxyglucose (2-DG) uptake in isolated soleus muscles; conditions: insulin 10 milliunits ml^−1
Description: as §1, §2

EDL muscles [3] = assay: Basal 2-DG uptake (no insulin) in isolated EDL muscles; conditions: for Basal rate of 2-DG uptake, EDL: 2-APB 0.1 mmol 1^−1, MDL 300 μmol 1^−1, TBQ 500 nmol 1^−1, mean ± SEM (n)
Description: as §1, §2

soleus muscles [4] = assay: Basal 2-DG uptake (no insulin) in isolated soleus muscles; conditions: for Basal rate of 2-DG uptake, Soleus: MDL 300 μmol 1^−1, TBQ 500 nmol 1^−1, mean ± SEM (n)
Description: as §1, §2

skeletal muscle = assay: Contractile function (tetanic force, relaxation) during drug exposure
Description: To ensure that this inhibition was not caused by a generalized, unspecific inhibitory effect of the drug, contractile function was tested during exposure to 2-APB.

[5] = test system: store-mediated Ca^2+ entry (SMCE); assay: Rate of Mn2+ quenching of fura-2 fluorescence in single FDB muscle fibers (indirect measure of SMCE)
Description: as §1
(§3) Experiments on single FDB muscle fibers were performed at 24° C. The isolated fiber was mounted in a stimulation chamber and continuously superfused by standard Tyrode solution (Lännergren et al. (1987) J Physiol 390:285-293). The free myoplasmic [Ca^2+] ([Ca^2+]i) was measured with the fluorescent Ca^2+ indicator indo-1 (Andrade et al. (1998) J Physiol 509:565-575). An indirect measure of SMCE was obtained by measuring the rate of Mn^2+ entry and quenching of the fluorescence intensity of fura-2 (Hopfet al. (1996) J Biol Chem 271:22358-22367). MnCl2 (100 μmol 1^−1) was added to the bath solution and the fura-2 injected muscle fiber was excited at 360±5 nm (the isosbestic wavelength of fiira-2 under our experimental conditions) while measuring the fluorescence light emitted at 495±5 nm. The rate of Mn^2+ quenching was measured during periods where the rate of decrease of the fluorescent light was stable, i.e. ignoring transient changes induced by changes of the bath solution. Measurements were not performed until 2 min after application of insulin, thus allowing time for insulin to act.

single FDB muscle fibers = assay: Free myoplasmic [Ca2+]i measured with indo-1 in single FDB muscle fibers; conditions: global [Ca^2+]i, 75±13 before, n=4
Description: as §1
as §3, with “The isolated fiber was mounted in a stimulation chamber and continuously superfused by standard Tyrode solution (Lännergren et al. (1987) J Physiol 390:285-293). The free myoplasmic [Ca^2+]” left out, “Measurements were not performed until 2 min after application of insulin, thus allowing time for insulin to act.” left out

Compound: c1ccc([C@H]2CCC[C@H]2NC2=NCCCCCCCCCCC2)cc1 (relative stereo) [MDL, cis-N-(2-phenylcyclopentyl)azacyclotridec-1-en-2-amine]
- Effect on insulin-mediated 2-DG uptake, EDL (in words) (EDL muscles [1]): decreased insulin-mediated 2-DG uptake in a dose-dependent manner
- Effect on insulin-mediated 2-DG uptake, soleus (in words) (soleus muscles [2]): decreased insulin-mediated 2-DG uptake in a dose-dependent manner
- Effect on basal 2-DG uptake, EDL (in words) (EDL muscles [3]): not significantly affected
- Basal rate of 2-DG uptake, EDL (EDL muscles [3]): 42 ± 3 (4) μmol 1^−1 min^−1
- Effect on basal 2-DG uptake, soleus (in words) (soleus muscles [4]): not significantly affected
- Basal rate of 2-DG uptake, Soleus (soleus muscles [4]): 42 ± 4 (4) μmol 1^−1 min^−1
- Reversibility of the force reduction on washout (skeletal muscle; 100 μmol 1^−1 MDL): not reversed on washout
- Reduction of tetanic force (skeletal muscle; 100 μmol 1^−1 MDL, 30 min of exposure, n=4): 22±2%

Compound: insulin
- Increase in the rate of Mn^2+ quenching on addition of insulin ([5]; 0 mmol 1^−1 glucose, n=5): about 10%
- Insulin-induced change of the rate of Mn^2+ quenching (in words) ([5]; 5.5 mmol 1^−1 glucose, mean data, n=6): no significant insulin-induced change
- Recovery of the 2-APB-induced decrease of quenching rate by insulin ([5]; insulin 10 mU ml^−1 in continued presence of 2-APB 100 μmol 1^−1): about half
- [Ca^2+]i after application of insulin (single FDB muscle fibers): 74±13 nmol 1^−1

Compound: CC(C)(C)c1cc(O)c(C(C)(C)C)cc1O [TBQ, 2,5-di(tert-butyl)-1,4-benzohydroquinone]
- Insulin-mediated 2-DG uptake, EDL (EDL muscles [1]; 100 nmol 1^−1 TBQ, n=6): 93±5 μmol 1^−1 min^−1
- Insulin-mediated 2-DG uptake, EDL (EDL muscles [1]; 500 nmol 1^−1 TBQ, n=4): 103±4 μmol 1^−1 min^−1
- Effect on insulin-mediated 2-DG uptake, EDL (in words) (EDL muscles [1]): no effect
- Insulin-mediated 2-DG uptake, soleus (soleus muscles [2]; 100 nmol 1^−1 TBQ, n=6): 150±7 μmol 1^−1 min^−1
- Insulin-mediated 2-DG uptake, soleus (soleus muscles [2]; 500 nmol 1^−1 TBQ, n=4): 179±8 μmol 1^−1 min^−1
- Effect on insulin-mediated 2-DG uptake, soleus (in words) (soleus muscles [2]): no effect
- Effect on basal 2-DG uptake, EDL (in words) (EDL muscles [3]): no significant effect
- Basal rate of 2-DG uptake, EDL (EDL muscles [3]): 37 ± 6 (4) μmol 1^−1 min^−1
- Effect on basal 2-DG uptake, soleus (in words) (soleus muscles [4]): no significant effect
- Basal rate of 2-DG uptake, Soleus (soleus muscles [4]): 63 ± 5 (4) μmol 1^−1 min^−1
- Increase of tetanic force (skeletal muscle; 2-APB 100 μmol 1^−1, 30 min (n=5), TBQ 500 nmol 1^−1 (n=4)): 4±2%
- Relaxation speed (in words) (skeletal muscle; 2-APB 100 μmol 1^−1, 30 min, TBQ 500 nmol 1^−1): slight slowing of relaxation
